Measurements taken from article PMC3844044 (Journal of medicinal chemistry, 2013).
Values belong to the molecule of their own block, whether it stands above or below them.

Experiments:
[1] = test system: proteasome; conditions: read-out: reported IC50 for proteasome inhibition; cited from earlier work
[2] = test system: bortezomib-resistant THP-1 cell line (BTZ500); assay: Cell viability, bortezomib-resistant THP-1 cell line; type: cell-based, human
[3] = conversion to inactive aromatic imidazole 5; ref 13b; cited from earlier work
[4] = test system: NF-κB mediated gene transcription; conditions: read-out: NF-κB-luc IC50; Table 1; cell culture, previously reported; cited from earlier work
[5] = biological target: purified human 20S proteasome (Homo sapiens, UniProt P28074); assay: Inhibition of the chymotryptic-like activity of purified human 20S proteasome; type: biochemical
[6] = test system: human myelomonocytic THP-1 cells; assay: Cell viability, THP-1 wild type cells, 72 hours; type: cell-based; conditions: screened at 10 μM and 5 μM

SMILES: CC(C)C[C@H](NC(=O)[C@H](Cc1ccccc1)NC(=O)c1cnccn1)B(O)O [Bortezomib, bortezomib, reference compound]
% cell viability Resistant ([2]; BTZ500, bortezomib at 0.5 μM, 72 hours): unable to induce significant cytotoxicity

SMILES: c1ccc(CN2C(c3ccccc3)=N[C@H](c3ccccc3)[C@H]2c2ccccc2)cc1 [compound 2]
stability upon standing [3]: slowly isomerised and dehydrogenated

SMILES: c1ccc(CN2C(c3ccccc3)=N[C@@H](c3ccccc3)[C@H]2c2ccccc2)cc1 [compound 3]
IC50 [4]: > 10000 nM
stability upon standing [3]: slowly isomerised and dehydrogenated
proteasome inhibitory activity (in words) [5]: depleted of activity

SMILES: c1ccc(CN2CCN=C2c2ccccc2)cc1 [compound 4]
IC50 [4]: > 10000 nM
proteasome inhibitory activity (in words) [5]: depleted of activity

SMILES: c1ccc(Cn2c(-c3ccccc3)nc(-c3ccccc3)c2-c2ccccc2)cc1 [compound 5]
IC50 [4]: > 10000 nM
proteasome inhibitory activity (in words) [5]: depleted of activity

SMILES: CCOC(=O)[C@]1(c2ccccc2)N=C(c2ccccc2)N[C@@H]1c1ccccc1 [compound 11]
proteasome inhibitory activity (in words) [5]: depleted of all activity

SMILES: CCOC(=O)[C@]1(c2ccccc2)N=C(c2ccccc2)N(C(C)=O)[C@@H]1c1ccccc1 [compound 12]
proteasome inhibitory activity (in words) [5]: depleted of activity

SMILES: CCOC(=O)[C@]1(c2ccccc2)N=C(c2ccc(OC)cc2)N(Cc2ccccc2)[C@@H]1c1ccc(N)cc1 [compound 37]
cytotoxic activity (in words), THP-1 wild type [6]: weak cytotoxic activity
cytotoxic activity (in words), bortezomib-resistant BTZ500 ([2]; screened at 10 μM and 5 μM): weak cytotoxic activity

Second part, the molecule after the results:

proteasome inhibitory activity (in words) [5]: depleted of activity
SMILES: CCOC(=O)[C@]1(c2ccccc2)N=C(c2ccccc2)N(C(=O)c2ccccc2)[C@@H]1c1ccccc1 [compound 13]

proteasome inhibitory activity (in words) [5]: depleted of activity
SMILES: CCOC(=O)[C@]1(c2ccccc2)N=C(c2ccccc2)N(S(=O)(=O)c2ccc(C)cc2)[C@@H]1c1ccccc1 [compound 14]

proteasome inhibitory activity (in words) [5]: inactive
SMILES: CCOC(=O)[C@]1(c2ccccc2)N=C(c2ccccc2)N(Cc2ccccc2)[C@@H]1c1ccncc1 [compound 20]

IC50 ([5]; IC50 proteasome inhibition): 500 nM
SMILES: CCOC(=O)[C@]1(c2ccccc2)N=C(c2ccccc2)N(Cc2ccccc2)[C@@H]1c1ccc(NCc2ccccc2)cc1 [compound 29]
